Results published in US20240376081A1, “POLYMORPH AND APPLICATION OF PYRIMIDINE DERIVATIVE AND PHARMACEUTICALLY ACCEPTABLE SALT THEREOF” (SHANGHAI HAIYAN PHARMACEUTICAL TECHNOLOGY CO., LTD., priority 2021, published 2024).
Where two headings read alike, the source gives them in different places. Values belong to the compound of their own block, whether it stands above or below them.

Experiments:
[1] = Differential scanning calorimetry (DSC), crystal form stability; type: physicochemical; conditions: may be transformed into free alkali crystal form I during warming up
Excerpt: As one of the embodiments, DSC plots in some embodiments of the present application were collected on a DISCOVERY DSC25 differential scanning calorimeter with the test parameters shown in Table 11.

A2A receptor = A2A receptor (Homo sapiens (Human), UniProt P29274); experiment: Inhibitory activity on A2A receptor, cAMP assay in CHO-K1/ADORA2A/Gα15 cells (Test Example 1); type: cell-based; conditions: NECA 50 nM
Chain of A2A receptor (P29274 whole entry): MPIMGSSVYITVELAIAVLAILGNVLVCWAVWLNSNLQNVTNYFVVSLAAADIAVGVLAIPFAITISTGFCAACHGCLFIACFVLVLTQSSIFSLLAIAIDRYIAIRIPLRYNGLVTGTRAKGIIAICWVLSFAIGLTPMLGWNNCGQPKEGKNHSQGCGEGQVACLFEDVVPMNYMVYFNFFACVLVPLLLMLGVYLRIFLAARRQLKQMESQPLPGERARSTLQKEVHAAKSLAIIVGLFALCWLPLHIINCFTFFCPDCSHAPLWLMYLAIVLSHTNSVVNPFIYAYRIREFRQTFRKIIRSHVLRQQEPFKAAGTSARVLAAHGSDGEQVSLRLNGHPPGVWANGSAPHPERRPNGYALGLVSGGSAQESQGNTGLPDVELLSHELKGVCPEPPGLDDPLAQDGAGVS
Procedure: (§1) CHO-K1/ADORA2A/Gα15 (GenScript, M00246) and CHO-K1/ADORA2B/Gα15 (GenScript, M00329) cells were cultured in Ham's F-12 (Gibco, 31765092) medium with medium conditions containing 10% FBS, 200 μg/mL Zeocin (bleomycin) and 100 μg/mL Hygromycin B (thaumatin B) or 10% FBS, 400 μg/mL G418 and 100 μg/mL Hygromycin B. Details of the culture conditions are described in the corresponding instructions.

A2B receptor = A2B receptor (Homo sapiens (Human), UniProt P29275); experiment: Inhibitory activity on A2B receptor, cAMP assay in CHO-K1/ADORA2B/Gα15 cells (Test Example 1); type: cell-based; conditions: NECA 10 nM
Chain of A2B receptor (P29275 whole entry): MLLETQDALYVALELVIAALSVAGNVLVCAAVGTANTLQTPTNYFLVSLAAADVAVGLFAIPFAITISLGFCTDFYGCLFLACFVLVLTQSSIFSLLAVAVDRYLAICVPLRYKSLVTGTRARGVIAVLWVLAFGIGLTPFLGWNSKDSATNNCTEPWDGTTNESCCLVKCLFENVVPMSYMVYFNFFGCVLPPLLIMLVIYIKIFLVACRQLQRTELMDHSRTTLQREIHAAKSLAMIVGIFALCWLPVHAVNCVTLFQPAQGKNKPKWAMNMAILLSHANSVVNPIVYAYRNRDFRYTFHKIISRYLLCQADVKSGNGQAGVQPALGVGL
Procedure: as §1

[2] = In vivo pharmacokinetics in mice (LC/MS/MS plasma concentration); conditions: male, ICR, mouse; for clearance: read-out: Clearance CLz
Excerpt: The LC/MS/MS method was applied to determine the medicament concentration in plasma at different moments after intravenous administration and oral gavage administration of Compound X of the present application in mice, respectively, to study the pharmacokinetic behavior of Compound X of the present application in mice, and to evaluate its pharmacokinetic characteristics.
Test animals: healthy adult male ICR mice (weighing from 25 g to 40 g, 12 mice, free to drink and eat in the intravenous injection group, fasted overnight in the gavage group, and free to drink and eat 4 h after the administration of the medicament), supplied by Beijing Viton Lever Laboratory Animal Technology Co., Ltd.
Mode of administration and dosage: animals meeting the experimental requirements were selected and weighed and labeled before administration. ICR mice were administered by tail vein (2 mg/kg, 5% DMSO, pH 4.5 20% Captisol) and by gavage (10 mg/kg, 5% DMSO, pH 4.5 20% Captisol).
Blood sample collection: Prior to blood sample collection, mice were bound and approximately […] of blood was collected from the jugular vein of each administered mouse at predetermined blood collection time points (i.v. administration: Blood was collected at 9 time points: 0.083 h, 0.25 h, 0.5 h, 1 h, 2 h, 4 h, 6 h, 7.5 h, and 24 h, respectively, after administration; and gavage administration: Blood was collected at 9 time points: 0.083 h, 0.25 h, 0.5 h, 1 h, 2 h, 4 h, 6 h, 7.5 h, and 24 h, respectively, after administration). The blood was transferred to 1.5 mL tubes preloaded with K2EDTA, and the blood plasma was separated by centrifugation for 4 min (8,000 rpm, 4° C.), which was performed within 15 min after the collection. All samples were stored in a refrigerator at −20° C. until sample analysis. LC/MS/MS method was applied to determine the medicament concentration.

[3] = test system: mouse colon cancer MC38(#22)-hpd-L1; experiment: In vivo potency assay in colon cancer MC38(#22)-hpd-L1 tumor bearing mice; design: species or system C57BL/6 mice; conditions: twice a day for 22 days
Procedure: Experimental Protocol: In this test example, tumor bearing mice subcutaneously transplanted with mouse colon cancer MC38(#22)-hpd-L1 was investigated. After administration of Compound X of the present application via the oral administration, the in vivo efficacy of Compound X on colon cancer MC38(#22)-hpd-L1 tumor bearing mice were tested.
Experimental materials: C57BL/6 mice (female); mouse colon cancer MC38(#22)-hpd-L1 cells (Shanghai Jiao Tong University cell bank), cultured in vitro in monolayer, culture conditions were using RPMI-1640 medium containing 10/% fetal bovine serum, 37° C. 5% CO2 incubator. The cells were passaged by conventional digestion treatment with trypsin-EDTA. When the cells were in the exponential growth phase with 80% to 90% saturation, the cells were harvested and counted.
Compound Preparation: The compound was weighed and added to the solvent (40% captisol in acetate buffer, pH 3.8) to prepare a 10 mg/mL sample. 75 μL of Tecentriq solution (60 mg/mL) was taken and added to 8.925 mL of phosphate buffer solution (PBS) to make a 0.5 mg/mL phosphate solution (phosphate buffer).
Experimental Operation: Cells were resuspended in the phosphate buffer at a density of 5×10^6 cells/mL. 0.1 mL of PBS (containing 5×10^5 MC38(#22)-hpd-L1 cells) was subcutaneously inoculated into the right back of each mouse. On the day of inoculation, the mice were randomized according to their body weights into groups of 10 mice each, and dosing was begun twice a day for 22 days. The animals were weighed daily and monitored for health throughout the experimental period. Tumor diameters were measured twice a week using vernier calipers.
Tumor volume V was calculated as V=0.5×a×b^2, with a and b denoting the long and short diameters of the tumor, respectively.
The tumor suppression efficacy of the compound was evaluated by relative tumor proliferation rate T/C (%). Relative tumor proliferation rate T/C (%)=Vt/Vc×100% (Vt: mean tumor volume of the treatment group; Vc: mean tumor volume of the negative control group). Vt and Vc were data taken from the same day.

[4] = Dynamic Vapor Sorption (DVS); type: physicochemical
[5] = Mixing and shaking in solvents, XRPD test; type: physicochemical
Excerpt: […] After centrifugation, the supernatant was discarded, and the solids were placed in an oven to dryness and subjected to the XRPD test.

[6] = Crystal competition experiment, XRPD; type: physicochemical; conditions: mixed forms I, IV, V, VI, VII shaken in different solvents for 24 h
Procedure: In order to detect the stablest crystal form of Compound X, crystalline competition experiments were carried out. 10 mg of free alkali crystal I, free alkali crystal IV, free alkali crystal form V, free alkali crystal form VI, and free alkali crystal form VII were weighed, respectively, and mixed thoroughly. 20 mg of the mixed crystal was weighed in a glass vial, to which 1 mL of solvent in Table 14 was added respectively, and the resultant was mixed and shaken at room temperature for 24 h, and centrifugated. The precipitate was taken, dried and then measured by XRPD.

[7] = Stability experiments of free alkali crystal form I, XRPD; type: physicochemical; conditions: 40° C., 75% RH, lid open; 1 week, 2 weeks, 1 month, 2 months, 4 months
Excerpt: Samples were taken at 1 week, 2 weeks, 1 month, 2 months, and 4 months for XRPD test, respectively.

[8] = intravenous (tail vein) 2 mg/kg, read-out: Area under the curve AUC0-t
[9] = intravenous (tail vein) 2 mg/kg
[10] = po, gavage 10 mg/kg, read-out: Area under the curve AUClast

crystal form stability from DSC plot [1]: sub-stable crystal form
Structure (SMILES): Cc1c(C#N)cccc1-c1nc(N)c(F)c(-c2cn(Cc3cccc(C(C)(C)O)n3)nn2)n1 [free alkali crystal form IV, 3-(4-amino-5-fluoro-6-(1-((6-(2-hydroxypropan-2-yl)pyridin-2-yl)methyl)-1H-1,2,3-triazol-4-yl)pyrimidin-2-yl)-2-methylbenzonitrile]

IC50 (A2A receptor): 0.001 mM
IC50 (A2B receptor): 0.003 mM
AUC(0-t) [2, 8]: 2250 ng·h/mL
clearance [2, 9]: 14.7 mL/min/kg
Cmax ([2]; po, gavage 10 mg/kg): 8730 ng/mL
AUC(0-t) [2, 10]: 10400 ng·h/mL
Structure (SMILES): Cc1c(C#N)cccc1-c1nc(N)c(F)c(-c2cn(Cc3cccc(C(C)(C)O)n3)nn2)n1 [Compound X, 3-(4-amino-5-fluoro-6-(1-((6-(2-hydroxypropan-2-yl)pyridin-2-yl)methyl)-1H-1,2,3-triazol-4-yl)pyrimidin-2-yl)-2-methylbenzonitrile]
Relative tumor proliferation rate T/C (%) ([3]; 10 mg/kg oral): 75.5%
Tumor volume ([3]; 10 mg/kg oral): 899 mm^3
Relative tumor proliferation rate T/C (%) ([3]; 30 mg/kg oral): 34.0%
Tumor volume ([3]; 30 mg/kg oral): 405 mm^3
Relative tumor proliferation rate T/C (%) ([3]; 100 mg/kg oral): 24.0%
Tumor volume ([3]; 100 mg/kg oral): 286 mm^3

AUC(0-t) [2, 8]: 1650 ng·h/mL
clearance [2, 9]: 19 mL/min/kg
Cmax ([2]; po, gavage 10 mg/kg): 5960 ng/mL
AUC(0-t) [2, 10]: 10300 ng·h/mL
Structure (SMILES): Cc1c(C#N)cccc1-c1cc(-c2cn(Cc3cccc(C(C)(C)O)n3)nn2)nc(N)n1 [Compound D1, reference compound]
Relative tumor proliferation rate T/C (%) ([3]; 100 mg/kg oral): 75.8%
Tumor volume ([3]; 100 mg/kg oral): 902 mm^3

hygroscopicity ([4]; DVS, 0% to 80% RH at 25° C.): almost no hygroscopicity
change in mass due to absorption ([4]; relative humidity from 0% to 80% RH at 25° C.): less than 0.2%
Crystal form after mixing and shaking ([5]; 50% Ethanol, 50° C., 1 day): Crystal form I
Crystal form after mixing and shaking ([5]; 50% Ethanol, RT, 1 day): Crystal form I
Crystal form after mixing and shaking ([5]; 50% Ethanol, RT, 7 days): Crystal form I
Crystal form after mixing and shaking ([5]; Ethanol, 50° C., 1 day): Crystal form I
Crystal form after mixing and shaking ([5]; Ethanol, RT, 1 day): Crystal form I
Crystal form after mixing and shaking ([5]; Ethanol, RT, 7 days): Crystal form I
Crystal form after mixing and shaking ([5]; Ethyl acetate, 50° C., 1 day): Crystal form I
Crystal form after mixing and shaking ([5]; Ethyl acetate, RT, 1 day): Crystal form I
Crystal form after mixing and shaking ([5]; Ethyl acetate, RT, 7 days): Crystal form I
Crystal form after mixing and shaking ([5]; Isopropanol, 50° C., 1 day): Crystal form I
Crystal form after mixing and shaking ([5]; Isopropanol, RT, 1 day): Crystal form I
Crystal form after mixing and shaking ([5]; Isopropanol, RT, 7 days): Crystal form I
Crystal form after mixing and shaking ([5]; Methyl tert-butyl ether, 50° C., 1 day): Crystal form I
Crystal form after mixing and shaking ([5]; Methyl tert-butyl ether, RT, 1 day): Crystal form I
Crystal form after mixing and shaking ([5]; Methyl tert-butyl ether, RT, 7 days): Crystal form I
Crystal form after mixing and shaking ([5]; Water, 50° C., 1 day): Crystal form I
Crystal form after mixing and shaking ([5]; Water, RT, 1 day): Crystal form I
Crystal form after mixing and shaking ([5]; Water, RT, 7 days): Crystal form I
change of crystal form after mixing and shaking ([5]; any of the seven solvents shown): did not change
Crystal form after mixing and shaking ([5]; n-Heptane, 50° C., 1 day): Crystal form I
Crystal form after mixing and shaking ([5]; n-Heptane, RT, 1 day): Crystal form I
Crystal form after mixing and shaking ([5]; n-Heptane, RT, 7 days): Crystal form I
stablest crystal form determined by competition [6]: stable crystal form
physical stability (XRPD) [7]: physically stable
Structure (SMILES): Cc1c(C#N)cccc1-c1nc(N)c(F)c(-c2cn(Cc3cccc(C(C)(C)O)n3)nn2)n1 [free alkali crystal form I, 3-(4-amino-5-fluoro-6-(1-((6-(2-hydroxypropan-2-yl)pyridin-2-yl)methyl)-1H-1,2,3-triazol-4-yl)pyrimidin-2-yl)-2-methylbenzonitrile]
